Measurements published in PubChem BioAssay AID602264 (The Scripps Research Institute Molecular Screening Center, 2012).
Active and inactive are the calls of the source. How the calls were made is not given here.

molecular target: Mu-type opioid receptor (Homo sapiens) + Delta-type opioid receptor (Homo sapiens) (UniProt P35372+P41143); assay: agonists of MOR-DOR heterodimerization, dose response, counter-screen for MC4R biased agonist project, cell-based, luminescence (AID 602264); conditions: cell-based OPRM1-OPRD1 heterodimerization
Sequence (P35372 whole entry, looked up): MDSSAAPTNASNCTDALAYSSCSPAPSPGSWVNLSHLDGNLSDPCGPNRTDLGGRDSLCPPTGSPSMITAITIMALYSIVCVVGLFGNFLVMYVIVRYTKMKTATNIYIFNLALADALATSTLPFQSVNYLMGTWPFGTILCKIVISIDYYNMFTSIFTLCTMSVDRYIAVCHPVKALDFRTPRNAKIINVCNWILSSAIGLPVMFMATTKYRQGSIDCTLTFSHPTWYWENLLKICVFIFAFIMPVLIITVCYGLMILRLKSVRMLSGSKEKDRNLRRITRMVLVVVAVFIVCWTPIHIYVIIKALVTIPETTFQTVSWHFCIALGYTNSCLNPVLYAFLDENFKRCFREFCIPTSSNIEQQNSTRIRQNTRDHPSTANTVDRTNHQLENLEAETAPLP
Sequence (P41143 whole entry, looked up): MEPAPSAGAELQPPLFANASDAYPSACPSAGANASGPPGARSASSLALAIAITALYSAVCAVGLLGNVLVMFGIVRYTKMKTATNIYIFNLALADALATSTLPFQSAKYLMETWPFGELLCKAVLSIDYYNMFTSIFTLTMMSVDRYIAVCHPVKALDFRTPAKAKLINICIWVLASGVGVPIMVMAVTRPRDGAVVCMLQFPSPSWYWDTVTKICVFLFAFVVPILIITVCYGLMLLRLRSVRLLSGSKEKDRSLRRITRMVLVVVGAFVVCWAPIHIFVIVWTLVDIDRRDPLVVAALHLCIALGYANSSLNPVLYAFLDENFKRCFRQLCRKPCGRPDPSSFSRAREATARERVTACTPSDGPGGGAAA

| EC50 | SMILES |
| --- | --- |
| inactive | O=C1OC(c2ccccc2)(c2cc(Br)ccc2O)c2ccccc21 (centres undefined) |
| > 92.5 µM (inactive) | Cc1ccc(NC(=O)c2ccccc2OCC(=O)c2ccc(F)cc2)cc1 |
| > 64.6 µM (inactive) | CC1(C)Oc2ccc3ccc(=O)oc3c2/C(=C/Nc2ccc(O)cc2)C1=O |
| > 92.5 µM (inactive) | CN(C)CCOc1ccc(-c2c(-c3ccsc3)sc3ccccc23)cc1 |
| > 64.6 µM (inactive) | CC(=O)Nc1cc(-c2ccc(CO)cc2)cn2c(-c3cccc(C(F)(F)F)c3)cnc12 |
| > 92.5 µM (inactive) | COc1cccc(-c2cnc3c(NC(C)=O)cc(-c4cc(F)ccc4OC)cn23)c1 |
| inactive | O=C(c1ccc(COc2ccc(Br)cc2)o1)N1N=C(C(F)F)CC1(O)C(F)F (centres undefined) |
| > 92.5 µM (inactive) | COC(=O)c1c(NC(=O)CC2SC(N)=NC2=O)sc2c1CCC(C(C)(C)C)C2 (centres undefined) |
| > 64.6 µM (inactive) | Clc1ccccc1/C=N/NC1=Nc2cccc3cccc1c23 |
| > 92.5 µM (inactive) | Cc1cc(C)nc(Nc2nc(C(N)Cc3ccc(C(F)(F)F)cc3)cs2)n1 (centres undefined) |
| > 92.5 µM (inactive) | O=C(CCN1C(=O)/C(=C/C=C/c2ccccc2)SC1=S)Nc1ccccn1 |
| > 92.5 µM (inactive) | N#Cc1sc2nc(-c3cccs3)cc(-c3ccc(F)cc3)c2c1N |
| inactive | O=C(NC(c1ccccc1)c1ccsc1)C1CCN(CCOc2ccc(Cl)cc2Cl)CC1 (centres undefined) |
| > 64.6 µM (inactive) | COc1ccc(-n2nc(C(=O)NCC(=O)Nc3ccccn3)c3ccccc3c2=O)cc1Cl |
| > 92.5 µM (inactive) | Cc1c(CCOC(=O)CC23CC4CC(CC(C)(C4)C2)C3)sc[n+]1CC(=O)c1ccccc1 |
| > 64.6 µM (inactive) | Cc1ccc(-c2csc3nc4c5ccccc5c(NCCCN(C)C)nn4c(=O)c23)cc1 |
| > 92.5 µM (inactive) | Cc1cc(C)c2sc(N(CCCN(C)C)C(=O)COc3ccc(Cl)cc3)nc2c1 |
| > 64.6 µM (inactive) | CCCCCCCCCCOC(=O)Cn1c(COc2cccc(C)c2)[n+](C)c2ccccc21 |
| > 64.6 µM (inactive) | Cc1ccc(-c2nnc(-c3ccc(NC(=O)Cc4cccs4)cc3)o2)cc1 |
| > 64.6 µM (inactive) | CC(=O)Nc1cc(-c2cccnc2)cn2c(-c3ccc(F)cc3)cnc12 |
| > 64.6 µM (inactive) | COc1ccc(-c2cnc3c(NC(C)=O)cc(-c4cc(F)ccc4OC)cn23)cc1OC |
| > 92.5 µM (inactive) | CC(=O)Nc1cc(-c2cccc(F)c2)cn2c(-c3ccc(F)cc3)cnc12 |

| EC50 | SMILES |
| --- | --- |
| > 64.6 µM (inactive) | COc1ccc(-c2sc3ccc(N4CCOCC4)cc3c2C#CC2(O)CCCCC2)cc1 |
| > 64.6 µM (inactive) | Cc1cc(N2CCN(C(=O)c3ccco3)CC2)n2nc(-c3cccc(Cl)c3)cc2n1 |
| > 64.6 µM (inactive) | CCC(C)(C)c1ccc(OCCCC[n+]2cccc(C)c2C)c(C(C)(C)CC)c1 |
| > 64.6 µM (inactive) | CCN1CCN(Cc2ccc(NC(=O)c3cc(NC(=O)c4cncc(-c5ccc(C#N)cc5)c4)cc(OC)c3)cc2C(F)(F)F)CC1 |
| > 92.5 µM (inactive) | CCCOc1ccc(C(=O)C(CCC(CNCC)C(=O)c2ccc(OCCC)cc2)CNCC)cc1 (centres undefined) |
| inactive | Cc1cccnc1C(NC(=O)C1CCN(CCOc2ccc(Cl)cc2Cl)CC1)c1ccc(Cl)cc1 (centres undefined) |
| > 92.5 µM (inactive) | COc1cccc(CC2(CO)CCCN(Cc3[nH]c4ccc(C)cc4c3C)C2)c1 (centres undefined) |
| > 64.6 µM (inactive) | CC(O)CC(=O)OC[C@]12CC[C@H]3[C@@](C)(CC[C@H]4C(C)(C)CCC[C@]34C)[C@@H]1CC(C1=CC(=O)OC1O)O2 (some centres undefined) |
| > 64.6 µM (inactive) | CCCCCCCNC(=O)C1(CC2CC(c3ccc(Cl)cc3)=NO2)CCNCC1 (centres undefined) |
| > 64.6 µM (inactive) | CCCCCCCCCCCCCCCC[n+]1cccc(C(=O)N(CC)CC)c1 |
| > 92.4 µM (inactive) | COc1cc(NS(=O)(=O)c2ccc(NC(=S)NC(=O)c3sc4ccccc4c3Cl)cc2)ncn1 |
| > 92.5 µM (inactive) | COc1ccc(NC(=O)Nc2nnc(-c3ccccc3SCc3ccccc3)s2)cc1 |
| > 92.5 µM (inactive) | O=C(COc1ccc2c(c1)OCO2)Nc1ccc2c(c1)oc1ccccc12 |
| > 92.5 µM (inactive) | O=C(N=Nc1c(O)n(Cc2ccccc2)c2ccccc12)c1cc2ccccc2cc1O |
| > 92.5 µM (inactive) | CN(C)CCCN(C(=O)c1cc2cc([N+](=O)[O-])ccc2s1)c1nc2cc3c(cc2s1)OCCO3 |
| > 64.6 µM (inactive) | CN(C)CCNC(=O)c1cccc(-c2cnc3c(NC=O)cc(-c4cccc(C(F)(F)F)c4)cn23)c1 |
| > 64.6 µM (inactive) | N#C/C(=C\c1ccc(-c2ccc(F)cc2)o1)C(=O)Nc1nc(-c2cccs2)cs1 |
| > 92.4 µM (inactive) | NC(Cc1ccc(Cl)cc1)c1csc(Nc2ccc(-c3ccccc3)nn2)n1 (centres undefined) |
| > 64.6 µM (inactive) | CCOC(=O)c1ccc(-c2ccc(/C=C(\C#N)C(=O)NCc3cccs3)o2)cc1 |
| > 92.4 µM (inactive) | COc1ccc(-c2cc(NC(C)=O)c3ncc(-c4ccccc4)n3c2)c(OC)c1 |
| > 10.3 µM (inactive) | COc1cc(NC(=O)Nc2nc(C(N)Cc3ccc(C(F)(F)F)cc3)cs2)cc(OC)c1OC (centres undefined) |
| > 64.6 µM (inactive) | COc1ccc(-c2cc(NC(C)=O)c3ncc(-c4ccc(F)cc4)n3c2)cc1OC |
